Reference: patent US20250277059A1, “ANTIBODY USED TO TREAT CORONAVIRUS INFECTION” (priority 2022, published 2025)

Test system: pseudo-typed virus having S protein of SARS-COV-2 (WT) derived from Wuhan
Type: cell-based

## N=C(N)c1ccc2cc(OC(=O)c3ccc(N=C(N)N)cc3)ccc2c1 [Nafamostat, nafamostat]
  infection inhibiting effect on WT-type virus: exhibited infection inhibiting effects
